Measured values as given in patent US9617269B2.

Molecular target: phosphodiesterase IX (Homo sapiens (Human), UniProt O76083)
Assay: Inhibition activity to the phosphodiesterase IX
Format: biochemical
Settings: concentration of the inhibitor when the inhibition rate reaches 50%
Method: Inhibition activities of all the N-substituted pyrazolo [3,4-d] pyrimidine ketone compounds according to the present invention to the phosphodiesterase IX are tested.

phosphodiesterase IX, sequence (O76083 whole entry): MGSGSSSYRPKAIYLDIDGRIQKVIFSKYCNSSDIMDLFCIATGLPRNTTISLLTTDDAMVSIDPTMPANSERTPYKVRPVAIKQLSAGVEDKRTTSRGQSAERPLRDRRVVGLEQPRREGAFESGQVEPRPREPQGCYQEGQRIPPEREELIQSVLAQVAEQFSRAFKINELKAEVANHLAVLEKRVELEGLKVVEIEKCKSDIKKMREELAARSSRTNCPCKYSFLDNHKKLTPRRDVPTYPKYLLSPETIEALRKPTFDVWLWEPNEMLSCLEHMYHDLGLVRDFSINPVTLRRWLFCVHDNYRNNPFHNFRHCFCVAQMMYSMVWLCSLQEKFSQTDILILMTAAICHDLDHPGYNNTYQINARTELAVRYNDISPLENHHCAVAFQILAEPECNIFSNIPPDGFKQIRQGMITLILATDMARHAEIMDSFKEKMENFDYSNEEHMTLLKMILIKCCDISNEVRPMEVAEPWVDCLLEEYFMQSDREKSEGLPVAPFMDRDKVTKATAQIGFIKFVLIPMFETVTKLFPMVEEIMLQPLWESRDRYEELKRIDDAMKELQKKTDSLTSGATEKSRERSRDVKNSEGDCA

IC50: 6 nM
SMILES: COc1ccc(NC(=O)C(C)Nc2nc3c(cnn3-c3ccccc3Cl)c(=O)[nH]2)cc1 (stereo not shown) [WYQ-94-D]
